In ChEMBL document CHEMBL5729575, “Alkynyl-substituted heterocyclic compound, preparation method therefor and medical use thereof” (2023):
pIC50: −log10 of the molar value.

Tests used:
[1] = target: Fibroblast growth factor receptor 2 (Homo sapiens, UniProt P21802); assay: FGFR2 Activity Inhibition Test: The reaction buffer contains the following components: 5-fold diluted enzymatic buffer/kinase 5x(Cisbio, Cat No. 62EZBFDD)(its main component is 50nM HEPES, pH 7.0), 5mM MgCl2 and 1 mM DTT, a human recombinant FGFR2 catalytic domain protein (amino acid 400-821) which was purchased from Yiqiao Shenzhou Biotech Co. Ltd., a 0.45ng/uL kinase solution diluted by the …
[2] = target: Fibroblast growth factor receptor 3 (Homo sapiens, UniProt P22607); assay: FGFR3 Activity Inhibition Test: The reaction buffer contains the following components: 5-fold diluted enzymatic buffer/kinase 5x(Cisbio, Cat No. 62EZBFDD)(its main component is 50nM HEPES, pH 7.0), 5mM MgCl2 and 1 mM DTT, a […] which was purchased from Yiqiao Shenzhou Biotech Co. Ltd., a 0.3 ng/uL kinase solution diluted by the …
Fibroblast growth factor receptor 3, sequence (P22607 whole entry): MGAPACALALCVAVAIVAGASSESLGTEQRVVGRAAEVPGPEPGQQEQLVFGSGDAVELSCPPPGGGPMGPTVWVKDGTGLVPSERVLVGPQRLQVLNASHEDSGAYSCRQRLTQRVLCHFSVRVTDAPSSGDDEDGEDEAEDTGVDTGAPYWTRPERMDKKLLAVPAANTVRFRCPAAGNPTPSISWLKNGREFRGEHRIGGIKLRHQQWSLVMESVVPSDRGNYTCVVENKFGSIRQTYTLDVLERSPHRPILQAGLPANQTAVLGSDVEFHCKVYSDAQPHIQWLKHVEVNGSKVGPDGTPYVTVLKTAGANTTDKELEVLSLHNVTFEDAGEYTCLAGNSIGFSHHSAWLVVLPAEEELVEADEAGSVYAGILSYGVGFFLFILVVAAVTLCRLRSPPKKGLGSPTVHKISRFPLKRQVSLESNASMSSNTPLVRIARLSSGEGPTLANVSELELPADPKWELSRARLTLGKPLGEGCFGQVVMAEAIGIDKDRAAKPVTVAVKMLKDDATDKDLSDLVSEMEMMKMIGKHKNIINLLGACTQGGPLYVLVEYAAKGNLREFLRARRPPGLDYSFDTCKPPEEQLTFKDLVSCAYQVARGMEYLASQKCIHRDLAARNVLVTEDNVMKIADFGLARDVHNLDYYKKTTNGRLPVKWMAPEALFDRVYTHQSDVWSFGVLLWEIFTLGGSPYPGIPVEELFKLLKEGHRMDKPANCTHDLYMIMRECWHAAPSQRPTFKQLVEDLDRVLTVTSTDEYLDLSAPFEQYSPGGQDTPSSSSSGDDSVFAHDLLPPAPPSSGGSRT

Fibroblast growth factor receptor 2, sequence (P21802 whole entry, the tested form may be a part): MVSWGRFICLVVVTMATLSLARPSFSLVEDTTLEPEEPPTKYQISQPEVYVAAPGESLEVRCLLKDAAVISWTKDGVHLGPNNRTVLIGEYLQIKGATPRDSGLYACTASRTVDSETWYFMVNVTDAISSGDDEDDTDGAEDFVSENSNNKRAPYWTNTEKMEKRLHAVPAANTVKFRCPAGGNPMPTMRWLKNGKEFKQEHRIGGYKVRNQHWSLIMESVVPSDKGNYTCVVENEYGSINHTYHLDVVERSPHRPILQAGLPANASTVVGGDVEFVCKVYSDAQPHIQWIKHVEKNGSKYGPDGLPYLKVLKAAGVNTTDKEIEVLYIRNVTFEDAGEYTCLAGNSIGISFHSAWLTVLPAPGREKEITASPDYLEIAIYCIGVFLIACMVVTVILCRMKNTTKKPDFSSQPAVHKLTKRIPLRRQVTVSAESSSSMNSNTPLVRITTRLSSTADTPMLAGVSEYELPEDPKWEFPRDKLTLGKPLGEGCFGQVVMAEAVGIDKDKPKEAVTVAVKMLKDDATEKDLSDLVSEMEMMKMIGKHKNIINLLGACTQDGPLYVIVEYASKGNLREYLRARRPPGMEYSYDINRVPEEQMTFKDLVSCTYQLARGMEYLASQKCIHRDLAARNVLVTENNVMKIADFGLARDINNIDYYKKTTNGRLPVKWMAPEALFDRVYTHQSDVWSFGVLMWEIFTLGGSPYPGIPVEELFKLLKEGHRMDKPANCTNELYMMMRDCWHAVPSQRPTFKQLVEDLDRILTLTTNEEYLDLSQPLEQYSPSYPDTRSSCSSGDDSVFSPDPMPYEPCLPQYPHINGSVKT

SMILES: CC#CC(=O)N1CC[C@H](n2nc(C#Cc3cc(OC)cc(OC)c3)c(C(N)=O)c2N)C1
- pIC50 [1]: > 8.00
- pIC50 [2]: > 8.00
